Experimental data taken from paper PMC8955307, “Nucleobase-Derived Nitrones: Synthesis and Antioxidant and Neuroprotective Activities in an In Vitro Model of Ischemia–Reperfusion” (International Journal of Molecular Sciences, 2022).

Tests used:
[1] = test system: SH-SY5Y human neuroblastoma cells; assay: Anti-necrotic effect: LDH release after OGD (4 h) and 24 h OGR (IR); assay type: cell-based; conditions: Homo sapiens, OGD 4 h + 24 h OGR (IR); for IC50: compounds 0.1 μM to 1 mM, read-out: LDH Release Inhibition IC50 ±SEM; for Emax: read-out: Maximal Inhibition Mean±SEM (LDH release)
Description: (§1) To induce experimental ischemia, and the sub-consequent cellular damage, the neuroblastoma cultures underwent OGD for 3–4 h, maintained in a glucose-free Dulbecco’s medium inside an anaerobic chamber in the presence of a gas mixture of 95% N2/5% CO2 and humidified at 37 °C at a constant pressure of 0.15 bar. After the OGD period (4 h), medium was substituted by oxygenated 10% FCS-containing medium, and cells were incubated in conditions of normoxia for 24 h to recovery (R24h). The compounds used in the neuroprotection studies: nitrones 9a–i, α-phenyl-N-tert-butyl nitrone (PBN) and N-acetyl-L-cysteine (NAC) (0.01 μM−1000 µM), were added at the beginning of R24h as described. Concurrently, controls in the absence of the OGD procedure were performed by maintaining these cells with Dulbecco’s medium including glucose for 3–4 h in an incubator in conditions of normoxia during the OGD period; thereafter, the medium was changed, and the cells (in the presence or absence of the different study compounds) were returned to the incubator for 24 h of recovery, as described. In addition, experiments including the same amounts of vehicle (final concentration < 1% dimethyl sulfoxide) were performed, serving as controls. The effects of nitrones 9a–g were analyzed three-five times independently using different culture batches, and each experiment was carried out in triplicate.
Anti-necrotic cell activity was evaluated by culturing SHSY5Y cells in 48-well dishes, in a density of 2 × 10^5 cells/well and treating them as controls or under the OGD-R24h procedure, adding the testing compounds at 0.01–1000 µM (see point 4.2.2.). Media of every well were collected in Eppendorf tubes properly labelled and stored at −20 °C until measurement (samples would be needed to measure extracellular NADH). Afterwards, each well was recharged with a 0.1 M Phosphate Buffer with 0.5% Triton X-100, pH 7.5, in order to scratch the cells from the bottom of the well. After a 13.000 rpm centrifugation, the soluble fractions are collected and labelled (samples would be essential to measure intracellular NADH). Finally, LDH activity was quantified as the degree of absorbance declined at 340, indicating the oxidation of NADH to NAD+ as described. Results are expressed as the LDH activity of the extracellular medium referred to the total LDH activity after cell lysis.

[2] = test system: human neuroblastoma SH-SY5Y cells; assay: Superoxide radical production (DHE fluorescence) after OGD and 3 h OGR (IR); assay type: cell-based; conditions: Homo sapiens, OGD + 3 h OGR (IR); for EC50: compounds 0.1 to 1000 μM, read-out: Antioxidant Activity EC50 ± SEM (superoxide production); for Emax: read-out: Maximal Activity mean±SEM (antioxidant)
Description: A density of 2–2.5 × 10^5 SHSY5Y cells/well was used to seed in 48-well plates to quantify superioxide anion formation. Firstly, cultured cells were exposed to OGD treatment for 3–4 h or maintained in normoxic conditions (controls). Thereafter, medium was replaced with oxygenated Dulbecco’s: Ham’s F12 medium with glucose, 1% Antibiotic-Antimycotic, 1% Gentamicin and 10% FCS. Cells were incubated in the absence (controls) or presence of indicated concentrations of the compounds of study, at 37 °C for 3 h. […] For every condition, the linear regression of fluorescence data (expressed in arbitrary fluorescence units, AFU) was calculated, and the slopes (a) of the best fitting lines (y = ax) were considered as an index of superoxide production, as described previously.

[3] = target: T1, Soybean Lipoxygenase (SLOX) (Glycine max, UniProt P08170); assay: In vitro inhibition of soybean lipoxygenase (UV absorbance-based enzyme assay); assay type: biochemical; conditions: soybean LOX, sodium linoleate substrate, pH 9
T1 sequence (P08170 1-839): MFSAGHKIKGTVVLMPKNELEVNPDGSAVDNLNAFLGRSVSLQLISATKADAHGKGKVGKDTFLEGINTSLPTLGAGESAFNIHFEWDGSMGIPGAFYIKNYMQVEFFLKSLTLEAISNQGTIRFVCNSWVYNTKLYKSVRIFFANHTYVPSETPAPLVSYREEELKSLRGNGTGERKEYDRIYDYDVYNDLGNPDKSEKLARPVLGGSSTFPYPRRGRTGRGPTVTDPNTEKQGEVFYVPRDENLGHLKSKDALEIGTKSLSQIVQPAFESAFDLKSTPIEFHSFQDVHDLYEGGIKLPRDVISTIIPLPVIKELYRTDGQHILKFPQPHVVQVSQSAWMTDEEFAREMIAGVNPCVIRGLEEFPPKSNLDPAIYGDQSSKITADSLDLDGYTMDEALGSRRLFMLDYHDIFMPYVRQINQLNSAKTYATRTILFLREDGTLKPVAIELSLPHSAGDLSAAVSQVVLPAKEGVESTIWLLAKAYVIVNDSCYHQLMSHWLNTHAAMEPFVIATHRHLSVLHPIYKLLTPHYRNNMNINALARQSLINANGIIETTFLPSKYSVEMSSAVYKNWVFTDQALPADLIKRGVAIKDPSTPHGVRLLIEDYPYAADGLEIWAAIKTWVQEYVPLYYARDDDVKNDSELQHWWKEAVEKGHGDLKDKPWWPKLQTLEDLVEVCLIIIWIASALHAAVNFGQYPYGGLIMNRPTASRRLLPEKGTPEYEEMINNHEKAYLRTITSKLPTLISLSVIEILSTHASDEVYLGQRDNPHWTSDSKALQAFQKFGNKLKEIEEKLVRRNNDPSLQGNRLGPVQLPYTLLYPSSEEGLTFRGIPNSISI
Description: The experimental conditions followed our previously reported protocol. Sodium linoleate was used as a substrate (0.1 mM) with 0.2 mL of the saline solution of SLOX (1/9 × 10^−4 w/v) in the Tris buffer pH 9.

[4] = Inhibition of lipid peroxidation (ILPO), AAPH protocol with sodium linoleate; conditions: tested at 100 µM
Description: The reactants consisting of 10 µL (16 mM) sodium linoleate, 10 µL of the tested nitrones in DMSO (final concentration 100 µM), 50 µL of AAPH ([…]) as a free radical initiator, 930 µL phosphate buffer pH 7.4 (0.05 M) at 37 °C under air, were mixed and the reaction’s result (as absorbance value) was recorded at 234 nm in comparison to PBN as a reference.

[5] = Reducing ability: interaction with DPPH; conditions: tested at 100 µM
[6] = Hydroxyl radical scavenging (competition with DMSO); conditions: tested at 100 µM
Description: The competition of the tested nitrones (100 µM) with DMSO (33 mM) in the phosphate buffer (50 mM), pH 7.4, was used. The hydroxyl radicals were generated by the Fe^3+/ascorbic acid system (EDTA 0.1 mM, Fe^3+ 167 µM, ascorbic acid 10 mM), and the samples were incubated at 37 °C/30 min. A 17% w/v solution of CCl3CO2H was used to stop the radical propagation. The percentage scavenging activity was compared to Trolox used as a reference.

[7] = ABTS radical cation decolorization assay; conditions: tested at 100 µM
Description: Approximately 10 µL of the tested compounds in DMSO (100 µM final concentration) were mixed with 200 µL of ABTS∙^+ (100 mM) and 790 µL absolute ethanol. The absorbance value was recorded 1 min after mixing at 734 nm and compared to Trolox.

[8] = test system: SH-SY5Y human neuroblastoma cells; assay: Neuroprotection: cell viability (XTT metabolic activity) after OGD (4 h) followed by OGR (24 h) (IR); assay type: cell-based; conditions: Homo sapiens, OGD 4 h + OGR 24 h (IR); for Emax: 24 h, read-out: Maximal Activity mean±SEM (neuroprotection); for EC50: compounds 0.01 μM to 1 mM, read-out: Neuroprotection EC50 ± SEM
Description: Cultures of human neuroblastoma cells from line SH-SY5Y were performed in flasks containing Dulbecco’s: Ham’s F12, 1:1 [v/v] composed of 0.5 mM sodium pyruvate, 2.5 mM GlutaMAX™; GIBCO, Life Technologies, Madrid (Spain), 3.15 mg/mL glucose, 1% Antibiotic-Antimycotic (100 ui/mL penicillin, […] streptomycin, and 0.25 mg amphotericin B), 1% Gentamicin 15 mg/mL (Sigma-Aldrich, Madrid, Spain) and 10% Fetal Calf Serum (FCS) (Gibco; Life Technologies, Madrid, Spain) as as described. For each experiment, neuroblastoma cells were digested partially with 0.25% trypsin-EDTA and seeded in plates of 96 or 48 wells with a density of 0.5–1 or 2–2.5 × 10^5 cells/well, respectively, depending on the assay. At 80% confluence of the seeded cells, medium was renewed adding 0.1–1000 µM of the compounds tested.
as §1
(§2) Cell viability measurements were carried out in human neuroblastoma cells SHSY5Y using 96-well culture plates, containing about 0.5–1 × 10^5 cells/well, after the OGD-R24h or control treatment including 0.01–1000 µM of the different testing compounds (nitrones 9a–g, PBN, and NAC), utilizing the Cell Proliferation Kit II (XTT), Sigma Aldrich, Madrid, Spain, which determines the culture’s metabolic capacity, as described in [21, 22]. XTT solution (0.3 mg/mL final concentration) was added to the seeded cells, incubated for 2 h at 37 °C with 5% CO2 and 95% air (v/v), and a spectrophotometer reader (Biotek Power-Wave XS microplate-reader (BioTek Instruments, Madrid, Spain) was used to register the absorbance at 450 nm (reference 650 nm) of the soluble formazan product generated. 100% viability was set by control normoxic cells treated with medium only, and control cells were added 0.001–1% DMSO in every assay.

[9] = test system: human neuroblastoma SH-SY5Y cells; assay: Basal neurotoxicity: cell viability under basal conditions; assay type: cell-based
Description: as §2

| EC50 [2] [µM] | IC50 [3] [µM] | melting point | EC50 [8] [µM] | SMILES | IC50 [1] [µM] | Emax [1] [%] | Emax [2] [%] | ILPO (%) [4] | DPPH (%) [5] [%] | OH (%) scavenging [6] | ABTS+ (%) [7] [%] | Emax [8] [%] | Neurotoxic effects at basal level (cell viability) [9] |
| --- | --- | --- | --- | --- | --- | --- | --- | --- | --- | --- | --- | --- | --- |
| 0.37 ± 0.04 | 62.5 |  |  | C/[N+]([O-])=C/Cn1ccc(=O)[nH]c1=O [9a] | 2.57 ± 0.53 | 100 ± 4.75 | 111 ± 1.46 | 62% | 20 | no activity and No | 19 |  |  |
| 3.69 ± 0.7 | 28 | 195 °C (dec.) |  | C/[N+]([O-])=C/Cn1cc(F)c(=O)[nH]c1=O [9c] | ~1 | 148 ± 8.8 | 96.1 ± 3.03 | 59% | 18 | 99% | 5 |  |  |
| 0.28 ± 0.03 | 33 | 192 °C (dec.) |  | Cn1c(=O)c2ncn(C/C=[N+](/C)[O-])c2n(C)c1=O [9g] | 2.66 ± 1.11 |  | 83 ± 1.37 |  | 15 | 49% | 8 | 105 ± 3.19 |  |
| 0.32 ± 0.06 |  |  | 6.15 ± 0.33 | C/[N+]([O-])=C/Cn1ccc(=O)n(C/C=[N+](/C)[O-])c1=O [9h] | 17.6 ± 3.33 | 126 ± 4.27 | 127 ± 3.12 | inactive and No | 82 | 25% | 50 | 115 ± 6.92 |  |
| 0.97 ± 0.16 |  |  | 4.18 ± 0.52 | CC(=O)N[C@@H](CS)C(=O)O [NAC, N-acetyl-L-cysteine, reference compound] | 4.64 ± 1.05 | 99.1 ± 6.59 | 126 ± 5.19 |  |  |  |  | 131 ± 4.85 | did not show any neurotoxic effects |
|  |  |  |  | CC(Cc1ccc(O)c(O)c1)C(C)Cc1ccc(O)c(O)c1 (stereo not shown) [NDGA, Nordihydroguaiaretic acid, reference compound] |  |  |  |  | 93 |  |  |  |  |
|  |  |  |  | Cc1c(C)c2c(c(C)c1O)CCC(C)(C(=O)O)O2 (stereo not shown) [Trolox, reference compound] |  |  |  | 93% |  | 73% | 91 |  |  |
